Experimental findings from BindingDB's records for doi:10.1016/j.bmc.2013.06.038 (Jagiellonian University Medical College, 2013) are described below.

The target in assay [1] is T1, Sodium- and chloride-dependent GABA transporter 3 (Mus musculus, UniProt P31650).
T1 sequence (P31650 whole entry): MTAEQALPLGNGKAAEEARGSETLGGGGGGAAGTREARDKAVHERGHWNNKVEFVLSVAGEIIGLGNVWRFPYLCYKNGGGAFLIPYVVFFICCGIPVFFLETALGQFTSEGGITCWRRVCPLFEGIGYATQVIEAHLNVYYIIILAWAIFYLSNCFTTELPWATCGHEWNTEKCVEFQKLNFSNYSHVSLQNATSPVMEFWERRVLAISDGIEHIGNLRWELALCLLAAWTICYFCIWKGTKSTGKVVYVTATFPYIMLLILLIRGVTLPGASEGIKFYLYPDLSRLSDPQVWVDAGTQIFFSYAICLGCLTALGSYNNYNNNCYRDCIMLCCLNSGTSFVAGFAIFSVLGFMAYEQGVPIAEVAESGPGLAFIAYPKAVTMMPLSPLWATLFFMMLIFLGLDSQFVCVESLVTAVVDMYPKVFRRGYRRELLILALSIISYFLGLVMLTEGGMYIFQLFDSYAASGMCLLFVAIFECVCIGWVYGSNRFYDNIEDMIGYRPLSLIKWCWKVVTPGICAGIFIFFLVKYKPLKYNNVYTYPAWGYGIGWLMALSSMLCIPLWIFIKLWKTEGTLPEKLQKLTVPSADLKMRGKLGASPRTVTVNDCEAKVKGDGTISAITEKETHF
The assay is described as follows: Inhibition of mouse GAT3-mediated [3H]GABA uptake stably transfected in HEK293 cells.

Assay [2] addresses T2, Sodium- and chloride-dependent GABA transporter 2 (Mus musculus, UniProt P31649).
T2 sequence (P31649 whole entry): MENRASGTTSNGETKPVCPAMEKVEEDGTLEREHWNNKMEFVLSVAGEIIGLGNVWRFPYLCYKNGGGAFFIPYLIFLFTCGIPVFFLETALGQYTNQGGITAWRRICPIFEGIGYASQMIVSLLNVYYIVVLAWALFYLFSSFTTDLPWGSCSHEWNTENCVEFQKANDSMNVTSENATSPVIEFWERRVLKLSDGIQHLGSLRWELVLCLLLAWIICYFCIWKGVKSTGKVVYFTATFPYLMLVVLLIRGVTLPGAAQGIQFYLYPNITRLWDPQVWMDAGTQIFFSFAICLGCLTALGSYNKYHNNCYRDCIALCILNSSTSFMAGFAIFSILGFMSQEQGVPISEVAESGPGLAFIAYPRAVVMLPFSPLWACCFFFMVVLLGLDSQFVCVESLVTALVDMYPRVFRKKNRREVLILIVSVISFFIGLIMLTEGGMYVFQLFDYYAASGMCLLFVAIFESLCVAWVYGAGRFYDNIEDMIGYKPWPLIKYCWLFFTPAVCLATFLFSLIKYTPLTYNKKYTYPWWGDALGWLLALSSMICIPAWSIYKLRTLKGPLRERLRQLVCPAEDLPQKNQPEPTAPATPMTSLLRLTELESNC
Description: Inhibition of mouse GAT2-mediated [3H]GABA uptake stably transfected in HEK293 cells.

On to `O=C(NCc1ccccc1Cl)C(CCO)N1CCC(=C(c2ccccc2)c2ccccc2)CC1` (centres undefined), for which the IC50 in assay [1] was determined as 56.2 µM; in assay [2], 75.9 µM.
On to `CN(CCCC(c1ccccc1)c1ccccc1)C(CCO)C(=O)NCc1ccc(F)cc1` (centres undefined), for which the IC50 turned out to be 38.9 µM in assay [1] and 41.7 µM in assay [2].
On to `O=C(NCc1ccc(F)cc1)C(CCO)NCCCC(c1ccccc1)c1ccccc1` (centres undefined), for which the IC50 in assay [1] worked out at 22.9 µM; in assay [2] it was 26.9 µM.
In the case of `C[C@@H](O)C[C@H](C(=O)NCc1ccccc1)N1CCC(=C(c2ccccc2)c2ccccc2)CC1`, the figures for the IC50 in assay [1] and in assay [2] were 21.9 µM and 49 µM, respectively.
For `O=C(NCc1ccc(Cl)cc1)C(CCO)NCCCC(c1ccccc1)c1ccccc1` (centres undefined), in that order: 14.8 µM and 11 µM.
As for `CN(CCC=C(c1ccccc1)c1ccccc1)C(CCO)C(=O)NCc1ccc(Cl)cc1` (centres undefined), the IC50 in assay [1] came out at 9.55 µM; in assay [2], 13.2 µM.
As to `Cc1ccc(CNC(=O)[C@@H](C[C@H](C)O)N2CCC(=C(c3ccccc3)c3ccccc3)CC2)cc1`, 50.1 µM corresponded to half-maximal inhibition in assay [2] (IC50).
The same measure, in the same setting: the figure for `O=C(NCc1ccc(Cl)cc1)C(CCO)N1CCC(=C(c2ccccc2)c2ccccc2)CC1` (centres undefined) is 19.5 µM.
In turn, `O=C(NCc1ccccc1Cl)C(CCO)NCCCC(c1ccccc1)c1ccccc1` (centres undefined) yielded an IC50 in assay [1] of 18.2 µM.
As for `Cc1ccc(CNC(=O)C(CCO)NCCCC(c2ccccc2)c2ccccc2)cc1` (centres undefined), the IC50 in assay [2] turned out to be 17 µM.
On to `Cc1ccc(CNC(=O)C(CCO)N(C)CCCC(c2ccccc2)c2ccccc2)cc1` (centres undefined), for which half-maximal inhibition in assay [2] (IC50) was put at 28.8 µM.
Consider `CN(CCCC(c1ccccc1)c1ccccc1)C(CCO)C(=O)NCc1ccccc1Cl` (centres undefined), for which the IC50 in assay [1] was 16.2 µM; in assay [2] it was 28.8 µM.
Take `Cc1ccc(CNC(=O)C(CCO)N(C)CCC=C(c2ccccc2)c2ccccc2)cc1` (centres undefined): the IC50 in assay [1] came out at 11.7 µM; in assay [2], 14.5 µM.
For the compound `CN(CCC=C(c1ccccc1)c1ccccc1)C(CCO)C(=O)NCc1ccccc1Cl` (centres undefined), in assay [2], the IC50 stood at 12.6 µM.
For the compound `CN(CCC=C(c1ccccc1)c1ccccc1)C(CCO)C(=O)NCc1ccccc1` (centres undefined), the IC50 turned out to be 13.5 µM in assay [1] and 26.9 µM in assay [2].
Take `C[C@H](O)C[C@H](C(=O)NCc1ccccc1)N1CCC(=C(c2ccccc2)c2ccccc2)CC1`: the IC50 in assay [1] turned out to be 30.9 µM; in assay [2], 61.7 µM.
The corresponding values for `O=C(NCc1ccccc1Cl)C(CCO)N1CCC(C(c2ccccc2)c2ccccc2)CC1` (centres undefined) are 36.3 µM and 49 µM.
On to `O=C(NCc1ccccc1)C(CCO)N1CCC(C(c2ccccc2)c2ccccc2)CC1` (centres undefined), for which 41.7 µM corresponded to half-maximal inhibition in assay [1] (IC50).
As to `O=C(NCc1ccccc1)C(CCO)NCCCC(c1ccccc1)c1ccccc1` (centres undefined), the IC50 in assay [1] stood at 35.5 µM; in assay [2], 28.8 µM.
`Cc1ccc(CNC(=O)[C@@H](C[C@@H](C)O)N2CCC(=C(c3ccccc3)c3ccccc3)CC2)cc1`: the IC50 turned out to be 57.5 µM in assay [1] and 24 µM in assay [2].
On to `C[C@H](O)C[C@H](C(=O)NCc1ccc(Cl)cc1)N1CCC(=C(c2ccccc2)c2ccccc2)CC1`, for which the IC50 in assay [1] came to 42.7 µM.
`Cc1ccc(CNC(=O)C(CCO)N2CCC(C(c3ccccc3)c3ccccc3)CC2)cc1` (centres undefined): the figures for the IC50 in assay [1] and in assay [2] were 42.7 µM and 38 µM, respectively.
Regarding `Cc1ccc(CNC(=O)C(CCO)N2CCC(=C(c3ccccc3)c3ccccc3)CC2)cc1` (centres undefined), in assay [2], the IC50 worked out at 30.9 µM.
Consider `O=C(NCc1ccccc1)C(CCO)N1CCC(=C(c2ccccc2)c2ccccc2)CC1` (centres undefined), for which the values for the IC50 in assay [1] and in assay [2] were 37.2 µM and 46.8 µM, respectively.
For `CN(CCCC(c1ccccc1)c1ccccc1)C(CCO)C(=O)NCc1ccccc1` (centres undefined), the IC50 in assay [1] turned out to be 32.4 µM; in assay [2], 39.8 µM.
On to `C[C@H](O)C[C@H](C(=O)NCc1ccc(F)cc1)N1CCC(=C(c2ccccc2)c2ccccc2)CC1`, for which the IC50 in assay [1] amounted to 55 µM; in assay [2], 100 µM.
As for `C[C@@H](O)C[C@H](C(=O)NCc1ccc(F)cc1)N1CCC(=C(c2ccccc2)c2ccccc2)CC1`, the figures for the IC50 in assay [1] and in assay [2] were 26.9 µM and 64.6 µM, respectively.
For `O=C(NCc1ccc(F)cc1)C(CCO)N1CCC(=C(c2ccccc2)c2ccccc2)CC1` (centres undefined), in that order: 28.2 µM and 16.6 µM.
Consider `CN(CCC=C(c1ccccc1)c1ccccc1)C(CCO)C(=O)NCc1ccc(F)cc1` (centres undefined), for which the IC50 in assay [1] is 11.2 µM.
As for `O=C(NCc1ccc(Cl)cc1)C(CCO)N1CCC(C(c2ccccc2)c2ccccc2)CC1` (centres undefined), the results for the IC50 in assay [1] and in assay [2] were 32.4 µM and 60.3 µM, respectively.
`CN(CCCC(c1ccccc1)c1ccccc1)C(CCO)C(=O)NCc1ccc(Cl)cc1` (centres undefined) showed an IC50 in assay [1] of 13.2 µM.
`C[C@H](O)C[C@H](C(=O)NCc1ccccc1Cl)N1CCC(=C(c2ccccc2)c2ccccc2)CC1` returned a half-maximal inhibitory concentration (IC50) in assay [1] of 28.8 µM.
As for `O=C(NCc1ccc(F)cc1)C(CCO)N1CCC(C(c2ccccc2)c2ccccc2)CC1` (centres undefined), the IC50 was determined as 34.7 µM in assay [1] and 55 µM in assay [2].

As usually defined, the IC50 is the concentration at which inhibition is half-maximal. A lower IC50 goes with greater potency.
